# Data reported in PubChem BioAssay (NCI).
#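 These data come from cells grown in 96-well plates and exposed to compound for 48 hours at five concentrations. At the GI50, growth is halved. TGI: concentration producing complete growth inhibition.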
# What was measured:
# Assay in all cases: NCI anticancer screen, dose series, 48 h
# [1] = tested on: 786-0 renal
# [2] = tested on: A549 NSCLC
# [3] = tested on: COLO 205 colon
# [4] = tested on: HL-60(TB) leukemia
# [5] = tested on: NCI-H226 lung
# [6] = tested on: OVCAR-4 ovarian
# [7] = tested on: RPMI-8226 leukemia
# [8] = tested on: SF-268 CNS
# [9] = tested on: SK-MEL-28 melanoma
# [10] = tested on: UACC-62 melanoma
SMILES,GI50 [1] [µM],TGI [1] [µM],GI50 [2] [µM],TGI [2] [µM],GI50 [3] [µM],TGI [3] [µM],GI50 [4] [µM],TGI [4] [µM],GI50 [5] [µM],TGI [5] [µM],GI50 [6] [µM],TGI [6] [µM],GI50 [7] [µM],TGI [7] [µM],GI50 [8] [µM],TGI [8] [µM],GI50 [9] [µM],TGI [9] [µM],GI50 [10] [µM],TGI [10] [µM]
COc1cccc(C2CC(c3cc(OC)c(OC)c(OC)c3)=NN2)c1 (centres undefined),13.7,56.4,21.7,87.2,18.7,48.8,4.08,31.7,28.9,> 100,23.5,> 100,5.18,26,13.6,81.2,17.8,> 100,20.6,> 100
COC1=CC(c2ccc[nH]2)=N/C1=C\c1[nH]c(C)c(C(=O)OCc2ccccc2)c1C,0.0666,1.08,0.0826,4.68,0.165,1.48,0.328,20.2,0.132,1.52,0.0756,5.71,0.116,1.8,0.11,1.94,0.353,1.71,0.0579,0.193
CCCN(CCC)CCCNCc1cc(I)cc(C)c1O,13.6,26.4,19.4,42.4,13.8,29,13.8,29.8,22.3,66.1,17.9,37.8,10.8,27.2,15.9,29.4,15.4,28.9,5.54,18.6
COc1ccc2c(c1)C(=O)c1c-2n(CCCN)c(=O)c2ccccc12,0.0196,0.31,< 0.01,0.0689,< 0.0318,0.807,< 0.01,,0.0441,0.122,0.133,1.61,< 0.0114,0.0316,0.045,1.09,0.459,1.89,0.166,1.21
CO[C@H](C(=O)[C@@H](O)[C@@H](C)O)[C@@H]1Cc2cc3cc(O[C@H]4C[C@@H](O[C@H]5C[C@@H](O)[C@H](O)C(C)O5)[C@H](O)C(C)O4)c(C)c(O)c3c(O)c2C(=O)[C@H]1O[C@H]1C[C@@H](O[C@H]2C[C@@H](O[C@H]3C[C@@H](OC)[C@H](O)C(C)O3)[C@@H](O)C(C)O2)C(O)(O)C(C)O1 (some centres undefined),0.164,> 25,0.0843,> 25,0.0833,0.89,2.94,> 25,0.0545,0.461,0.404,> 11.7,0.182,> 11.4,0.128,> 25,0.0439,1.11,0.00601,0.0945
COc1cc(CCc2cccnc2)cc(OC)c1OC,,> 100,,> 100,,> 100,,> 100,,> 100,,> 100,,> 100,,> 100,,> 100,,> 100
C[n+]1c(/C=C\C=C\N2CCCCC2)sc2ccccc21,2.55,> 36.6,0.413,3.07,0.204,0.454,0.166,0.737,1.05,22.4,0.479,> 42.4,0.0691,1.09,0.457,14.8,0.552,13.4,0.691,12.4
COC(=O)Cc1cc(OC)c(OC)cc1Br,,> 100,,> 100,,> 100,,> 100,,> 100,,> 100,,> 100,,> 100,,> 100,,> 100
CN1C(=O)c2c(ccc3c2OCO3)C2C(O)Cc3cc4c(cc3C21)OCO4 (centres undefined),,37.3,,> 100,,14.4,,6.3,,5.93,,> 100,,> 100,,> 100,,> 100,,> 100
CCOc1ccc(NC(=O)CC2SC(=Nc3ccc(Cl)cc3)NC2=O)cc1 (centres undefined),,> 100,,> 100,,> 100,,75.4,,> 100,,> 100,,> 100,,> 100,,> 100,,> 100
Cc1ccc(S(=O)(=O)N/N=C/c2oc(-c3cccc([N+](=O)[O-])c3)c(-c3cccc([N+](=O)[O-])c3)c2[N+](=O)[O-])cc1,,> 100,,> 100,,> 100,,57.1,,> 100,,> 100,,67.1,,66.7,,> 100,,49.3
Cc1ccccc1NC(=S)Nc1ccccn1,> 100,> 100,> 100,> 100,> 100,> 100,> 100,> 100,> 100,> 100,72.5,> 100,62.7,> 100,> 100,> 100,> 100,> 100,> 100,> 100
COc1cc2c(cc1O)C=NCC2,,> 100,,> 100,,> 100,,> 100,,> 100,,> 100,,> 100,,> 100,,> 100,,> 100
CCN(CC)CCNC(=O)c1ccccc1NC(=O)C(=O)Nc1ccccc1C(=O)NCCN(CC)CC,,42.6,,> 100,,35.8,,32.4,,> 100,,> 100,,> 100,,> 100,,> 100,,> 100
